The source of these data is PubChem BioAssay (NCI).

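These data come from cells grown in 96-well plates and exposed to compound for 48 hours at five concentrations. TGI is the concentration that stops growth completely.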

Among the test systems are A498 renal; A549 NSCLC; EKVX NSCLC; HCT-15 colon; NCI-H226 lung; OVCAR-3 ovarian; RPMI-8226 leukemia; SF-295 CNS; SK-MEL-2 melanoma; TK-10 renal.
Holding throughout (test): growth of human tumour cells (NCI), 48 h

For the compound `O=C(N/N=C(/COc1ccc(Cl)cc1)N=Cc1ccncc1)c1ccncc1`, the TGI in the assay with A498 renal, in the assay with A549 NSCLC, in the assay on EKVX NSCLC, in the assay on HCT-15 colon, with NCI-H226 lung and in the assay with OVCAR-3 ovarian was over 100 µM throughout. The TGI with RPMI-8226 leukemia, in the assay on SF-295 CNS, in the assay on SK-MEL-2 melanoma and with TK-10 renal was over 100 µM throughout.
Take `CC(C)(C)OC(=O)N[C@H]1CCN(C2CCCCC2)C1=O`: the TGI in the assay on A498 renal, in the assay on A549 NSCLC, with EKVX NSCLC, in the assay with HCT-15 colon, with NCI-H226 lung and in the assay on RPMI-8226 leukemia was over 100 µM in each case. For the same compound, the TGI with SK-MEL-2 melanoma and in the assay with TK-10 renal was over 100 µM each time.
On to `c1csc(-c2ccc(-c3cccc4nsnc34)s2)c1`, for which the TGI with A498 renal, in the assay on A549 NSCLC, in the assay on EKVX NSCLC, in the assay with HCT-15 colon, in the assay with NCI-H226 lung and in the assay on OVCAR-3 ovarian was over 100 µM each time. Also, the TGI in the assay on RPMI-8226 leukemia, in the assay on SF-295 CNS, in the assay on SK-MEL-2 melanoma and in the assay on TK-10 renal was over 100 µM each time.
Consider `COC(=O)C1SC(SC)=NC12c1ccccc1Nc1ccccc12` (stereo unspecified), for which the TGI was over 100 µM in the assay on A498 renal; over 100 µM in the assay with A549 NSCLC; over 100 µM in the assay on EKVX NSCLC; over 100 µM with HCT-15 colon; over 100 µM in the assay with NCI-H226 lung; 45.8 µM in the assay with OVCAR-3 ovarian. Besides, the TGI with RPMI-8226 leukemia is 49.4 µM; with SF-295 CNS, over 100 µM; with SK-MEL-2 melanoma it was 47.3 µM; in the assay on TK-10 renal it was over 100 µM.
In the case of `NC(N)=N/N=C/c1c(-c2ccc(N)cc2)nc2sccn12`, the TGI in the assay on A498 renal is 68.2 µM; in the assay with A549 NSCLC, 47.6 µM; in the assay on EKVX NSCLC it was 61.1 µM; with HCT-15 colon, over 100 µM; in the assay on NCI-H226 lung it was over 100 µM; in the assay with OVCAR-3 ovarian, 67.3 µM. The TGI in the assay with RPMI-8226 leukemia was found to be 99.2 µM; in the assay on SF-295 CNS, 55.6 µM; in the assay on SK-MEL-2 melanoma, 81.8 µM; with TK-10 renal it was 40.9 µM.
Consider `Cc1ccc(N=NC(=Nc2ccccc2)c2ccc(N(CCC#N)CCC#N)cc2)cc1`, for which the TGI in the assay with A498 renal was over 100 µM; with A549 NSCLC, 80.7 µM; with EKVX NSCLC, over 100 µM; in the assay with HCT-15 colon, over 100 µM; with NCI-H226 lung, over 100 µM; in the assay on OVCAR-3 ovarian it was 75.1 µM. Moreover, the TGI in the assay on RPMI-8226 leukemia is over 100 µM; in the assay on SF-295 CNS it was 92.4 µM; in the assay with SK-MEL-2 melanoma, 48 µM; in the assay on TK-10 renal, 74.9 µM.
Turning to `CCCCCCc1cc2cc(-c3csc(CC#N)n3)c(=O)oc2cc1O`, the TGI is over 100 µM in the assay on A498 renal; over 100 µM in the assay with A549 NSCLC; over 100 µM in the assay on EKVX NSCLC; over 100 µM with HCT-15 colon; over 71.1 µM in the assay on NCI-H226 lung; over 100 µM in the assay with OVCAR-3 ovarian. Further, the TGI in the assay on RPMI-8226 leukemia, in the assay with SF-295 CNS, with SK-MEL-2 melanoma and in the assay on TK-10 renal was over 100 µM each time.
With `CC(C)(C)N1CSC(=S)N(Cc2ccco2)C1`, the TGI in the assay on A498 renal is 26.7 µM; in the assay on A549 NSCLC, 24.4 µM; in the assay on EKVX NSCLC, 30.2 µM; with HCT-15 colon, 10.6 µM; in the assay on NCI-H226 lung it was 41.4 µM; with OVCAR-3 ovarian, 4.94 µM. The TGI with RPMI-8226 leukemia was determined as 0.697 µM; in the assay with SF-295 CNS it was 31.5 µM; in the assay on SK-MEL-2 melanoma it was 14.6 µM; in the assay with TK-10 renal, 11.6 µM.
In the case of `COc1ccc(COCCOCc2nc(C#N)c(N)o2)cc1`, the TGI with A498 renal, in the assay with A549 NSCLC, in the assay with EKVX NSCLC, in the assay on HCT-15 colon, with NCI-H226 lung and with OVCAR-3 ovarian was over 100 µM each time. Moreover, the TGI with RPMI-8226 leukemia, in the assay with SF-295 CNS, with SK-MEL-2 melanoma and in the assay on TK-10 renal was over 100 µM in each case.
Turning to `CCOC(=O)C(SCCO)C(C(=O)OCC)n1cnc2c(=O)[nH]c(NC(C)=O)nc21` (stereo unspecified), the TGI in the assay with A498 renal, with A549 NSCLC, with EKVX NSCLC, in the assay on HCT-15 colon, in the assay on NCI-H226 lung and with OVCAR-3 ovarian was over 100 µM each time. Moreover, the TGI in the assay with RPMI-8226 leukemia, in the assay on SF-295 CNS, in the assay with SK-MEL-2 melanoma and in the assay with TK-10 renal was over 100 µM each time.
On to `CC1(C)N=[N+]([O-])C1(C)C`, for which the TGI in the assay with A498 renal, in the assay on A549 NSCLC, with EKVX NSCLC, in the assay on HCT-15 colon, in the assay with NCI-H226 lung and in the assay on OVCAR-3 ovarian was over 100 µM throughout. Further, the TGI in the assay on RPMI-8226 leukemia, with SK-MEL-2 melanoma and in the assay with TK-10 renal was over 100 µM in each case.
Consider `COc1ccc(-c2c(C#N)c(-c3ccc(C)cc3)n(NS(=O)(=O)c3ccc(C)cc3)c(=O)c2C#N)cc1`, for which the TGI in the assay with A498 renal was over 100 µM; with A549 NSCLC, over 100 µM; in the assay on EKVX NSCLC, over 100 µM; in the assay on HCT-15 colon it was over 100 µM; in the assay on NCI-H226 lung, over 100 µM; in the assay with RPMI-8226 leukemia, 46.3 µM. Further, the TGI in the assay on SF-295 CNS, in the assay on SK-MEL-2 melanoma and in the assay with TK-10 renal was over 100 µM each time.
Take `CC(=O)OC1CC(OC2C(O)CC(OC3C(O)CC(OC4CCC5(C)C(CCC6C5CC(O)C5(C)C(C7=CC(=O)OC7)CCC65O)C4)OC3C)OC2C)OC(C)C1OC1OC(CO)C(O)C(O)C1O` (stereo unspecified): the TGI stood at 0.413 µM in the assay on A498 renal; 0.0399 µM with A549 NSCLC; 0.0981 µM in the assay on EKVX NSCLC; 0.16 µM with HCT-15 colon; 0.606 µM in the assay with NCI-H226 lung; 0.15 µM in the assay with OVCAR-3 ovarian. The TGI came to 25.7 µM in the assay with RPMI-8226 leukemia, 0.179 µM in the assay on SF-295 CNS, 0.488 µM in the assay on SK-MEL-2 melanoma and 0.235 µM in the assay with TK-10 renal.
On to `COC(=O)c1ccccc1CC1Cc2ccc3c(c2C1=O)CCCC3` (stereo unspecified), for which the TGI in the assay with A498 renal, with A549 NSCLC, in the assay with EKVX NSCLC, in the assay with HCT-15 colon, in the assay with NCI-H226 lung and in the assay on OVCAR-3 ovarian was over 100 µM each time. In addition, the TGI in the assay on RPMI-8226 leukemia was over 75.5 µM; in the assay with SF-295 CNS, over 100 µM; in the assay with SK-MEL-2 melanoma it was over 76.3 µM; with TK-10 renal, over 100 µM.
